Test results from publication PMC9019100, “Development of NanoLuc-targeting protein degraders and a universal reporter system to benchmark tag-targeted degradation platforms” (Nature Communications, 2022).
Several values for one entry are separate records, joined by “and”; a condition that tells them apart may be missing. Equal entries are not always repeated. Where two headings read alike, the source gives them in different places.

Assays:
murine MLKL-FKBP^F36V = target: T1, murine MLKL-FKBP^F36V (Homo sapiens, UniProt P62942, F37V); type: cell-based; conditions: 31.2-500 nM, 5 h
T1 construct: expressed in transfected cells; host or cells: Mlkl-/- mouse dermal fibroblasts, doxycycline-inducible
Description: (§3) All timepoint experiments were performed as reverse timepoints in order to harvest all cells at the same time. At the indicated time points cells were lysed in NuPAGE LDS lysis buffer (Invitrogen) diluted to 1× in DISC lysis buffer (20 mM Tris-HCl pH7.5, 150 mM NaCl, 2 mM EDTA pH 8.0, 1% Triton X-100, 10% glycerol, H20)) supplemented with β-Mercaptoethanol (2%), protease and phosphatase inhibitors. Lysates were run through polypropylene columns (Pierce) to shred DNA. […] Membranes were blocked in 5% skim milk (Devondale) in TBS-T (TBS, 0.1% Tween-20) for 1 h prior to immunoblotting with primary antibodies overnight at 4 °C. Unless stated otherwise, all primary antibodies were diluted in TBS-T (TBS, 0.1% Tween-20) containing 5% BSA (Sigma A8022) and 0.04% sodium azide: HaloTag (1:1000, Promega; G9211), NanoLuc (1:500, Promega; N7000), β-actin (1:20,000, Sigma; A-1798), MLKL (1:1000, produced in-house; 3H1 clone)[39], FKBP (1:1000, R&D systems; 422513), caspase-8 (1:1000, Proteintech; 13423-1-AP), Histone H3 (1:1000, Abcam; ab10799), Cadherin (1:1000, Cell Signalling Technologies; 4068 T). Membranes were washed 3 × 5–10 min in TBS-T (TBS, 0.1% Tween-20) prior to the addition of the appropriate secondary antibodies conjugated with horseradish peroxidase (Jaxon laboratories). […]

MLKL-FKBP^F36V = MLKL-FKBP^F36V (Homo sapiens, UniProt P62942, F37V); type: cell-based; conditions: 5 h, low nM concentrations
Description: All experiments were repeated independently three times, and a representative Fig. is shown.
as §3

caspase-8-FKBP^F36V = target: T2, caspase-8-FKBP^F36V (Homo sapiens, UniProt P62942, F37V); type: cell-based; conditions: 5 h
T2 construct: expressed in transfected cells; host or cells: MLKL-/-CASP8-/- HT29, constitutive expression

[1] = target: Halo-EGFP-NanoLuc-FKBP^F36V (H-E-N-F) fusion protein (UniProt P0A3G2+P62942+Q9GV45, A155T/A167V/A172T/A224E/A31E/A60N/A81I/C128F/C176G/D78G/E160K/E257K/F37V/F95D/H272N/I117V/K175M/K195N/K70R/L47V/L54V/L88M/L99Q/M102K/N193R/N227D/P142E/P291S/Q151K/Q38R/Q45L/S2A/S58T/T264A/V71I/Y165I/Y273L/Y87F); type: cell-based; conditions: 5 h
[2] = target: recombinant NanoLuc enzyme (Oplophorus gracilirostris, UniProt Q9GV45, A31E/A60N/A81I/F95D/I117V/K70R/L54V/L99Q/M102K/N193R/P142E/Q151K/Q38R/Q45L/V71I/Y165I); type: biochemical
MLKL-NanoLuc = target: T3, MLKL-NanoLuc (Oplophorus gracilirostris, UniProt Q9GV45, A31E/A60N/A81I/F95D/I117V/K70R/L54V/L99Q/M102K/N193R/P142E/Q151K/Q38R/Q45L/V71I/Y165I); test: Western blot of MLKL^−/− HT29 cells expressing MLKL-NanoLuc; type: cell-based, human; conditions: 62.5-500 nM, 5 h
T3 construct: expressed in transfected cells; host or cells: MLKL-/- HT29 (A12); MLKL-/-CASP8-/- HT29 (A24); doxycycline-inducible
Description: (§1) Cells were seeded in 24-well plates ±doxycycline (20 ng/mL for HEK293T, 40 ng/mL for HT29) and incubated overnight (16–24 h) prior to degrader treatments, as stated in the Fig. legends. All timepoint experiments were performed as reverse timepoints in order to harvest all cells at the same time. At the indicated time points cells were lysed in NuPAGE LDS lysis buffer (Invitrogen) diluted to 1× in DISC lysis buffer (20 mM Tris-HCl pH7.5, 150 mM NaCl, 2 mM EDTA pH 8.0, 1% Triton X-100, 10% glycerol, H20)) supplemented with β-Mercaptoethanol (2%), protease and phosphatase inhibitors. Lysates were run through polypropylene columns (Pierce) to shred DNA. […] Membranes were blocked in 5% skim milk (Devondale) in TBS-T (TBS, 0.1% Tween-20) for 1 h prior to immunoblotting with primary antibodies overnight at 4 °C. Unless stated otherwise, all primary antibodies were diluted in TBS-T (TBS, 0.1% Tween-20) containing 5% BSA (Sigma A8022) and 0.04% sodium azide: HaloTag (1:1000, Promega; G9211), NanoLuc (1:500, Promega; N7000), β-actin (1:20,000, Sigma; A-1798), MLKL (1:1000, produced in-house; 3H1 clone)[39], FKBP (1:1000, R&D systems; 422513), caspase-8 (1:1000, Proteintech; 13423-1-AP), Histone H3 (1:1000, Abcam; ab10799), Cadherin (1:1000, Cell Signalling Technologies; 4068 T). […]
(§2) NC4. […] Cell death was assessed by flow cytometric analysis of PI exclusion. […]

NanoLuc-SLC38A2 = target: T4, NanoLuc-SLC38A2 (Oplophorus gracilirostris, UniProt Q9GV45, A31E/A60N/A81I/F95D/I117V/K70R/L54V/L99Q/M102K/N193R/P142E/Q151K/Q38R/Q45L/V71I/Y165I); test: Western blot of 293T cells expressing NanoLuc-SLC38A2; type: cell-based; conditions: 125-500 nM, 5 h
T4 construct: expressed in transfected cells; host or cells: 293T, doxycycline-induced
Description: as §1, §2

[3] = system: MLKL^−/− HT29 cells expressing MLKL-NanoLuc; type: cell-based; conditions: for Live cells (%PI negative) after TNF+911+zVAD: MLKL-/- + MLKL NanoLuc, independent experiments
Description: Cell death was assessed by flow cytometric analysis of PI exclusion. […] Cell death was assessed by flow cytometric analysis of PI exclusion. […] Cell death was assessed by flow cytometric analysis of PI exclusion. e N = 4, f N = 3 independent experiments (symbols), EB represent mean ± SD. g Western from MLKL^−/−CASP8^−/− HT29 cells stably expressing the doxycycline-inducible C-terminal fusion protein, MLKL-NanoLuc (MLKL-NLuc) and constitutively expressing the C-terminal fusion protein caspase-8-FKBP^F36V. […] Cell death was assessed using an IncuCyte and Cytotox-Red uptake. N = 3 independent experiments, one representative experiment shown, EB represent mean ± SD.
Degrader compounds or a DMSO vehicle control were added for 5 h, as stated in the Fig. legends. Cells were detached using Trypsin-EDTA (Merck) and resuspended in cell supernatants containing 10 μg/mL propidium iodide (PI). PI exclusion analysis was performed using an LSR II flow cytometer (Becton Dickinson, NJ) with 10,000 single-cell events per sample. Flow cytometry data were analysed using WEASEL version 2.7 software (Frank Battye).

Sequence of Halo-EGFP-NanoLuc-FKBP^F36V (H-E-N-F) fusion protein (Q9GV45 other isoform, or with tags, fused parts or gaps with the stated changes): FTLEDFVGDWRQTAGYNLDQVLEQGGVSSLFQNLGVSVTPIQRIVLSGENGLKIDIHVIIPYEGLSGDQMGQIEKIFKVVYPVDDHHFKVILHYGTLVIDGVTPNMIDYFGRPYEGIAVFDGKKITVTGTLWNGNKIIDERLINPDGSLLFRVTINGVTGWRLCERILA
Sequence of Halo-EGFP-NanoLuc-FKBP^F36V (H-E-N-F) fusion protein (P0A3G2 other isoform, or with tags, fused parts or gaps with the stated changes): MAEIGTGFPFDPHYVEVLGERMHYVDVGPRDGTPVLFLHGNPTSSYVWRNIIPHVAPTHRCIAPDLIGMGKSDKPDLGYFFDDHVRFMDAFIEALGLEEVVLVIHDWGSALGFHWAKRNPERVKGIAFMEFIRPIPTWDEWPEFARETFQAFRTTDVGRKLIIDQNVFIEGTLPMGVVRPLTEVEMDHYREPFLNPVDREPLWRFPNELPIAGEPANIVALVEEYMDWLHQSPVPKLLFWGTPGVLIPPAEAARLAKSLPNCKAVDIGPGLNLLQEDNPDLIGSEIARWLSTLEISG
Sequence of Halo-EGFP-NanoLuc-FKBP^F36V (H-E-N-F) fusion protein (P62942 whole entry F37V, the tested form may be a part): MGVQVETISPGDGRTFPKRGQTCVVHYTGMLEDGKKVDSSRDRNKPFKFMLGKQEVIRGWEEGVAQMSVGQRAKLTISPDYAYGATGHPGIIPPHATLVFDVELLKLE
T3 sequence (Q9GV45 other isoform, or with tags, fused parts or gaps with the stated changes): as the sequence (Q9GV45 other isoform, or with tags, fused parts or gaps with the stated changes) above
T4 sequence (Q9GV45 other isoform, or with tags, fused parts or gaps with the stated changes): as above
Sequence of recombinant NanoLuc enzyme (Q9GV45 other isoform, or with tags, fused parts or gaps with the stated changes): as above
T1 sequence (P62942 whole entry F37V): as the sequence (P62942 whole entry F37V, the tested form may be a part) above
T2 sequence (P62942 whole entry F37V): as the sequence (P62942 whole entry F37V, the tested form may be a part) above
Sequence of MLKL-FKBP^F36V (P62942 whole entry F37V): as the sequence (P62942 whole entry F37V, the tested form may be a part) above

Row | SMILES | degradation of murine MLKL-FKBP^F36V (murine MLKL-FKBP^F36V) | MLKL-FKBP^F36V protein level by Western blot (MLKL-FKBP^F36V) | depletion of caspase-8-FKBP^F36V (caspase-8-FKBP^F36V) | degradation of the H-E-N-F substrate protein by Western blot, comparison of NanoTACs ([1]; 125-500 nM) | low concentration triggering degradation of the fusion protein ([1]; Western blot) | reduced inhibition of NanoLuc enzymatic activity compared to the parent inhibitor (NanoLuc inhibitor 2) [2] | degradation of MLKL-NanoLuc, comparison of NanoTACs (MLKL-NanoLuc) | NanoLuc-SLC38A2 level by Western blot (NanoLuc-SLC38A2) | effect on MLKL-NanoLuc-driven necroptosis ([3]; 5 h pre-treatment, then TSZ 24 h) | Live cells (%PI negative) after TNF+911+zVAD ([3]; 31.25nM) | Live cells (%PI negative) after TNF+911+zVAD ([3]; 62.5nM) | Live cells (%PI negative) after TNF+911+zVAD ([3]; 250nM) | Live cells (%PI negative) after TNF+911+zVAD ([3]; 500nM) | Live cells (%PI negative) after TNF+911+zVAD ([3]; 1000nM)
1 | CC[C@H](C(=O)N1CCCC[C@H]1C(=O)O[C@H](CCc1ccc(OC)c(OC)c1)c1ccccc1OCC(=O)NCCCCCCC(=O)N[C@H](C(=O)N1C[C@H](O)C[C@H]1C(=O)N[C@@H](C)c1ccc(-c2scnc2C)cc1)C(C)(C)C)c1cc(OC)c(OC)c(OC)c1 [FV1] | comparable degradation | no detectable protein | could be depleted | – | – | – | – | – | – | – | – | – | – | –
2 | CCc1cccc(N(CC)C(=O)Cn2c(C(=O)NC3CCC(C(=O)NCCCCCCCC(=O)NCCCCNc4cccc5c4C(=O)N(C4CCC(=O)NC4=O)C5=O)CC3)cc3ccccc32)c1 (centres unmarked) [NC4] | – | – | – | consistently outperforming the first analogue NC1 | ~ 30 nM | ~ 30 fold | most effective degradation profile | reduction in Nanoluc-SLC38A2 | sufficient to reduce MLKL-NanoLuc-driven necroptosis | 46.4 and 73.2 and 58.1 | 53.4 and 72.4 and 68.5 | 58.1 and 71.5 and 68.6 | 54.7 and 68.7 and 64.4 | 53.1 and 66.7 and 61.4
